From patent US7977354B2, “Heterocyclic compounds, their preparation and their use as medicaments, in particular as anti-alzheimer agents” (priority 2005, dated 2011)
Like-named read-outs stand apart in the source and are kept apart here.

Columns and labels:
[1] = molecular target: T1, human acetylcholinesterase (Homo sapiens, UniProt P22303); test: biochemical; assay type: biochemical; details: for Inhibition of human acetylcholinesterase (apparent IC50), result in words: tested until solubility limit
T1 construct: human erythrocyte membranes as a AChE source; from tissue; host or cells: human erythrocyte membranes
T1 sequence (P22303 32-617 isoform P22303-2 limits assumed): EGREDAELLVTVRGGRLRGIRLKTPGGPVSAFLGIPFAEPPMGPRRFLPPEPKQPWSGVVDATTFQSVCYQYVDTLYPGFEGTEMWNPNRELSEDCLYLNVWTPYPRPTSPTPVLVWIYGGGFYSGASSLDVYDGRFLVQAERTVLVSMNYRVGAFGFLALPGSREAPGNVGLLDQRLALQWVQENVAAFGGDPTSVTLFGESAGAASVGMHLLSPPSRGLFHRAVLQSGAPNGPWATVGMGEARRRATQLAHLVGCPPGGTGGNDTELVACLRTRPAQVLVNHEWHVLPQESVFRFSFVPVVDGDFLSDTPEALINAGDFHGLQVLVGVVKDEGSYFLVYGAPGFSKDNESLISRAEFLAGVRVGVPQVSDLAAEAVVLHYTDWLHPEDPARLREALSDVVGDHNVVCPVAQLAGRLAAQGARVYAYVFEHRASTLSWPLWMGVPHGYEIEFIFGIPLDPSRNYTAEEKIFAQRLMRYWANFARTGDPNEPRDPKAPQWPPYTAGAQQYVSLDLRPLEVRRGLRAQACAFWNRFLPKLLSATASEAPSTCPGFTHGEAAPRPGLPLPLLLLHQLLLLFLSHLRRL

[2] = system: muscarinic receptors; test: Muscarinic receptors binding, radioligand [3H]-N-methylscopolamine, rat striatal membranes; details: at 10^−5 M
Method: The ability of prodrugs of formula G and/or inhibitors of formula G+ to nonselectively bind muscarinic receptors was evaluated with conventional radioligand binding method.
The ability of bio precursors and/or inhibitors to nonselectively bind muscarinic receptors was evaluated with conventional radioligand binding method.
The assay mixture (PBS Buffer, 300 μL), rat striatal membranes as a muscarinic receptors source (1 g/L, 100 μL), unknown compound at various concentrations (50 μL) and ^3H—N-methylscopolamine as specific radioligand of muscarinic receptors. The 60.0 minutes incubation time at room temperature was selected after preliminary experiments performed to ensure that the equilibrium between studied ligand and radioligand on muscarinic receptors is reached. The reaction was stopped by rapid vacuum filtration through Whatman GF/C filter paper (pre-soaked in a solution of polyethylenimine (0.1%) to reduce binding to filters). Filters were subsequently washed with ice-cold buffer (PBS Buffer, 3×1.5 mL) and placed overnight in 3 mL of Ready-Safe scintillation cocktail (Beckman Coulter, Inc.). Radioactivity was measured using a Wallac liquid scintillation counter. Each experiment was carried out twice in duplicate.

[3] = system: Swiss albinos mice; test: Acute toxicity in mice; assay type: in vivo; details: female and male Swiss albinos mice, intraperitoneal injection; compound 67 tested under its inclusion form as compound 82
Method: The Acute toxicity studies were carried out using female and male Swiss albinos mice (25-35 g). Most of the compounds show a very low toxicity, namely with a DL50 higher than 10 mg/kg. […] The pharmacokinetic study was carried out using female and male Swiss albinos mice for the determination of half-life and distribution volume of a compound of the invention
The toxicity studies were carried out using female and male Swiss albinos mice (25-35 g). Animals were kept in a temperature-controlled environment (23±2° C.) with a 12 h light-dark cycle and food and water were freely available. The animals were divided into one control group and five treated groups, each group consisting of six animals. The control group received saline and each treated group received the studied ligand in a dose of 1, 3, 10, 30 and 100 mg/kg by intraperitoneal injection. The animals were observed continuously for 3 h, and then they were observed each hour during 72 h after administering the compound in order to observe any changes in general behaviour or other physiological activities. At the end of the experiment, animals were sacrificed by cervical displacement.

[4] = Pharmacokinetic: half-life and distribution volume in mice, plasma HPLC; details: both, Swiss albino, mouse, in vivo, ip, 10 mg/kg
[5] = human erythrocyte membranes, acetylthiocholine iodide, pH 7.4, 10 min, room temperature, read-out: Inhibition of human acetylcholinesterase (apparent IC50)

SMILES	IC50 [1, 5] [nM]	Displacement of [^3H] N-methylscopolamine from muscarinic receptors [2]	Inhibition of human acetylcholinesterase (apparent IC50), result in words ([1]; human erythrocyte membranes)	also measured
CCOC(=O)c1cc2ccc(OC(=O)N(C)C)cc2[n+](C)c1 [Compound 1D, ethyl 1-methyl-7-(N,N-dimethylcarbamate)quinolinium-3-carboxylate triflate]	500	0% at 10^−5 M	–	–
CCOC(=O)c1cc2c(OC(=O)N(C)C)cccc2[n+](C)c1 [Compound 2E, Ethyl 5-(N,N-dimethylcarbamate)-1-methylquinolinium-3-carboxylate triflate]	7	0% at 10^−5 M	–	–
COC(=O)c1cc2c(OC(=O)N(C)C)cccc2[n+](C)c1 [Compound 67E, Methyl 5-(N,N-dimethylcarbamate)-1-methylquinolinium-3-carboxylate triflate]	–	0% at 10^−5 M	–	IC50 [1]: 110 nM
CNC(=O)c1cc2c(OC(=O)N(C)C)cccc2[n+](C)c1 [Compound 68D, 5-(N,N-dimethylcarbamate)-1-methyl-3-(N-methylcarboxamido)quinolinium triflate]	29	0% à 10^−5 M	–	–
CN(C)C(=O)Oc1cccc2c1cc(C(=O)N(C)C)c[n+]2C [Compound 69D, 5-(N,N-dimethylcarbamate)-3-(N,N-dimethylcarboxamido)-1-methylquinolinium triflate]	15	0% à 10^−5 M	–	–
CN(C)C(=O)Oc1cccc2c1cc(C(=O)N1CCOCC1)c[n+]2C [Compound 70D, 5-(N,N-dimethylcarbamate)-1-methyl-3-(morpholinocarboxy)quinolinium triflate]	860	0% à 10^−5 M	–	–
CCNC(=O)Oc1cccc2c1cc(C(=O)OC)c[n+]2C [Compound 76B, Methyl 5-(N-ethylcarbamate)-1-methylquinolinium-3-carboxylate triflate]	6000	–	–	–
CCCNC(=O)c1cc2ccc(OC(=O)N(C)C)cc2[n+](C)c1 [Compound 78C, 7-(N,N-dimethylcarbamate)-3-(N-propylcarboxamido)-1-methylquinolinium triflate]	50000	20% at 10^−5 M	–	–
CCOC(=O)C1=CN(C)c2cc(OC(=O)N(C)C)ccc2C1 [Example 1, ethyl 1-methyl-7-(N,N-dimethylcarbamate)-1,4-dihydroquinoline-3-carboxylate]	–	0% at 10^−5 M	No inhibition until	–
CCOC(=O)C1=CN(C)c2cccc(OC(=O)N(C)C)c2C1 [Example 2, ethyl 1-methyl-5-(N,N-dimethylcarbamate)-1,4-dihydroquinoline-3-carboxylate]	–	0% at 10^−5 M	No inhibition until	–
COC(=O)C1=CN(C)c2cccc(OC(=O)N(C)C)c2C1 [Example 67, methyl 5-(N,N-dimethylcarbamate)-1-methyl-1,4-dihydroquinoline-3-carboxylate]	–	0% at 10^−5 M	No inhibition until	Acute toxicity (DL50) [3]: 25 mg/kg; C0 [4]: 806 nM; half-life ([4]; Plasmatic half-life time T1/2, mice, intraperitoneal injection of 10 mg/kg of compound 67 under its inclusion form (example 82)): 14 min
CNC(=O)C1=CN(C)c2cccc(OC(=O)N(C)C)c2C1 [Example 68, 5-(N,N-dimethylcarbamate)-1-methyl-3-(N-methylcarboxamido)-1,4-dihydroquinoline]	–	0% at 10^−5 M	No inhibition until	–
CN(C)C(=O)Oc1cccc2c1CC(C(=O)N1CCOCC1)=CN2C [Example 70, morpholine 4-[5-(N,N-dimethylcarbamate)-1-methyl-1,4-dihydroquinolyl-3-carbonyl]]	–	0% à 10^−5 M	No inhibition until	–
CN(C)C(=O)Oc1cccc2c[n+](C)ccc12 [Example 71, 5-(N,N-dimethylcarbamate)-2-methylisoquinolinium triflate]	50	–	–	–
CN(C)C(=O)Oc1ccc2cc[n+](C)cc2c1 [Example 72, 7-(N,N-Dimethylcarbamate)-2-Methylisoquinolinium Triflate]	5000	–	–	–
COC(=O)c1cc2c(OC(=O)N(C)C)cc(OC(=O)N(C)C)cc2[n+](C)c1 [Example 73, Methyl 5,7-Bis(N,N-Dimethylcarbamate)-1-Methylquinolinium-3-Carboxylate Triflate]	> 10000	–	–	–
COC(=O)c1cc2cccc(OC(=O)N(C)C)c2[n+](C)c1 [Example 74, Methyl 8-(N,N-Dimethylcarbamate)-1-Methylquinolinium-3-Carboxylate Triflate]	1400	–	–	–
CN(C)C(=S)Oc1cccc2c[n+](C)ccc12 [Example 75, 2-Methyl-5-(N,N-Dimethylthiocarbamate)-O-Isoquinolinium Triflate]	> 10000	–	–	–
CCNC(=O)Oc1cccc2c1CC(C(=O)OC)=CN2C [Example 76, Methyl 1-Methyl-5-(N-Ethylcarbamate)-1,4-Dihydroquinoline-3-Carboxylate]	–	–	No inhibition until	–
CCOC(=O)c1cc2cccc(OC(=O)N(C)C)c2[n+](C)c1 [Example 77, Ethyl 1-Methyl-8-(N,N-Dimethylcarbamate)Quinolinium-3-Carboxylate Triflate]	8000	–	–	–
CCCNC(=O)C1=CN(C)c2cc(OC(=O)N(C)C)ccc2C1 [Example 78, 1-Methyl-3-(N-Propylcarboxamido)-7-(N,N-Dimethylcarbamate)-1,4-Dihydroquinoline]	–	25% at 10^−5 M	No inhibition until	–
CCOC(=O)c1ccc[n+](Cc2ccc(OC(=O)N(C)C)cc2)c1 [Example 80]	227	–	–	–
